test system: HT-29 cells; assay: Necrosis assay: TNF-α/Smac mimetic/z-VAD induced necrosis, cell viability by CellTiter-Glo; assay type: cell-based; settings: Homo sapiens, inhibition of necrosis, ATP levels, range given in uM, read-out: EC50 (necrosis activity)
Description: HT-29 cells were cultured in McCoy's 5A culture medium (Invitrogen). On day one, HT-29 cells were plated in 96-well assay plates at density of 2,500-3,500 cells per well. On day two, necrosis were induced by adding 20 ng/ml TNF-α (T), 100 nM Smac mimetic (S), and […] z-VAD (Z). At the same time, […] compound from a chemical library of ˜200,000 compounds was delivered into each well. After 24 hrs treatment, cell viability was determined by measuring ATP level using the CellTiter-Glo Luminescent Cell Viability Assay kit. A CellTiter-Glo Assay (Promega) was performed according to the manufacturer's instructions Luminescence was recorded with a PerkinElmer EnSpire Multimode Plate Reader. Survived cells were normalized to those cells treated with DMSO. Nec-1 was used as a positive control for screening necrosis inhibitors. Data are represented as mean±standard deviation of duplicates.
Dose-dependent inhibition of necrosis by compound #9 and the derivative compounds in HT-29 cells were determined by measuring ATP levels as described above.

Row | SMILES | EC50 [µM]
1 | CCC(C)(C)C(=O)N1CCOC1c1ccccc1 (stereo not drawn) [Compound 6, 2,2-dimethyl-1-(2-phenyloxazolidin-3-yl)butan-1-one] | 1 to 100
2 | CC(F)(F)C(C)(C)C(=O)N1C=CC=CC1c1ccccc1 (stereo not drawn) [Compound S15] | 1 to 100
3 | O=C1C[C@@H](c2ccccc2)N1CC1CC1 [Compound 50, (S)-1-(cyclopropylmethyl)-4-phenylazetidin-2-one] | 1 to 100
4 | CCC(C)(C)C(=O)N1C[C@H](O)[C@H]1c1ccccc1 [Compound S5, 1-((2R,3S)-3-hydroxy-2-phenylazetidin-1-yl)-2,2-dimethylbutan-1-one] | 1 to 100
5 | C#CC(C)(C)C(=O)N1C(=O)CC1c1cccc(N=[N+]=[N-])c1 (stereo not drawn) [Compound 44, 4-(3-azidophenyl)-1-(2,2-dimethylbut-3-ynoyl)azetidin-2-one] | 1 to 10
6 | CC(C)S(=O)(=O)N1C(=O)C[C@H]1c1ccccc1 [Compound 42, (S)-1-(isopropylsulfonyl)-4-phenylazetidin-2-one] | 1 to 100
7 | CCC(C)(C)C(=O)N1C(=O)CC1c1cccc([N+](=O)[O-])c1 (stereo not drawn) [Compound 28, 1-(2,2-dimethylbutanoyl)-4-(3-nitrophenyl)azetidin-2-one] | 1 to 10
8 | CCC(C)(C)C(=O)N1C(=O)CCN1c1ccccc1 [Compound 33, 2-(2,2-dimethylbutanoyl)-1-phenylpyrazolidin-3-one] | 1 to 100
9 | CCC(C)(C)C(=O)N1CC[C@H](O)[C@H]1c1ccccc1 [Compound S1, 1-((2R,3S)-3-hydroxy-2-phenylpyrrolidin-1-yl)-2,2-dimethylbutan-1-one] | 1 to 10
10 | CCC(C)(C)C(=O)N1CC[C@@H](O)[C@H]1c1ccccc1 [Compound S2, 1-((2R,3R)-3-hydroxy-2-phenylpyrrolidin-1-yl)-2,2-dimethylbutan-1-one] | 1 to 100
11 | CC(C)(C)S(=O)(=O)N1C(=O)C[C@H]1c1ccccc1 [Compound 45, (S)-1-(tert-butylsulfonyl)-4-phenylazetidin-2-one] | 1 to 100
12 | CCC(C)(C)C(=O)N1CCN(C(=O)OC(C)(C)C)CC1c1ccccc1 (stereo not drawn) [Compound 19, tert-butyl 4-(2,2-dimethylbutanoyl)-3-phenylpiperazine-1-carboxylate] | 1 to 100
13 | CC(F)(F)C(C)(C)C(=O)N1CCC=C[C@H]1c1ccccc1 [Compound S17] | 1 to 100
14 | CC(C)(C)[S+]([O-])N1C(=O)C[C@H]1c1ccccc1 (stereo partly drawn) [Compound 41, (4S)-1-(tert-butylsulfinyl)-4-phenylazetidin-2-one] | 1 to 100
15 | CCC(C)(C)C(=O)N1CCOCC1c1ccccc1 (stereo not drawn) [Compound 12, 2,2-dimethyl-1-(3-phenylmorpholino)butan-1-one] | 1 to 100
16 | CCS(=O)(=O)N1C(=O)C[C@H]1c1ccccc1 [Compound 43, (S)-1-(ethylsulfonyl)-4-phenylazetidin-2-one] | 1 to 100
17 | C#CCN1C(=O)OC[C@H]1c1ccccc1 [Compound 52, (R)-4-phenyl-3-(prop-2-yn-1-yl)oxazolidin-2-one] | 1 to 100
18 | CCC(C)(C)C(=O)N1CCNCC1c1ccccc1 (stereo not drawn) [Compound 17, 2,2-dimethyl-1-(2-phenylpiperazin-1-yl)butan-1-one] | 1 to 100
19 | CC(F)(F)C(C)(C)C(=O)N1C=CC=CC1C1CCCCC1 (stereo not drawn) [Compound S14] | 1 to 100
20 | O=C(C=CCl)N1C(=O)C[C@H]1c1ccccc1 [Compound 40, (S)-1-(3-chloroacryloyl)-4-phenylazetidin-2-one] | 1 to 100
21 | CCC(C)(C)C(=O)n1cccc1-c1ccccc1 [Compound 78, 2,2-dimethyl-1-(2-phenyl-1H-pyrrol-1-yl)butan-1-one] | 1 to 100
22 | CCC(C)(C)C(=O)N1C[C@@H](O)[C@H]1c1ccccc1 [Compound S4, 1-((2R,3R)-3-hydroxy-2-phenylazetidin-1-yl)-2,2-dimethylbutan-1-one] | 1 to 10
23 | CC(F)(F)C(C)(C)C(=O)N1CC=C[C@H]1c1ccccc1 [Compound S16] | 1 to 100
24 | CCC(C)(C)C(=O)N1CCC(=O)[C@H]1c1ccccc1 [Compound S3, (R)-1-(2,2-dimethylbutanoyl)-2-phenylpyrrolidin-3-one] | 1 to 10
25 | C#CCN1C[C@@H](c2ccccc2)N(C(=O)C(C)(C)CC)C1=O [Compound 30, (R)-3-(2,2-dimethylbutanoyl)-4-phenyl-1-(prop-2-yn-1-yl)imidazolidin-2-one] | 1 to 10
26 | CCN1C(=O)C[C@H]1c1ccccc1 [Compound 48, (S)-1-ethyl-4-phenylazetidin-2-one] | 1 to 100
27 | CCC(C)(C)C(=O)N1NC(=O)CC1c1ccccc1 (stereo not drawn) [Compound 34, 1-(2,2-dimethylbutanoyl)-5-phenylpyrazolidin-3-one] | 1 to 100

same assay, conditions: inhibition of necrosis, ATP levels, range given in nM, read-out: EC50 (necrosis activity)

Row | SMILES | EC50 [µM]
28 | O=C(N1CCCC1c1cccc(F)c1)C1(C(F)(F)F)CCCC1 (stereo not drawn) [Compound 35, (2-(3-fluorophenyl)pyrrolidin-1-yl)(1-(trifluoromethyl)cyclopentyl)methanone] | 0.001 to 1
29 | CCC(C)(C)C(=O)N1C(c2ccccc2)CCN1C (stereo not drawn) [Compound 22, 2,2-dimethyl-1-(2-methyl-5-phenylpyrazolidin-1-yl)butan-1-one] | 0.001 to 1
30 | CCC(C)(C)C(=O)N1COC[C@H]1c1ccccc1 [Compound 8, (R)-2,2-dimethyl-1-(4-phenyloxazolidin-3-yl)butan-1-one] | 0.001 to 1
31 | O=C(N1CCCC1c1cccc(F)c1)C1(C(F)(F)F)CCC1 (stereo not drawn) [Compound 36, (2-(3-fluorophenyl)pyrrolidin-1-yl)(1-(trifluoromethyl)cyclobutyl)methanone] | 0.001 to 1
32 | CC(C)(C)C(=O)N1CC[C@H]1c1ccccc1 [Compound S12, (S)-2,2-dimethyl-1-(2-phenylazetidin-1-yl)propan-1-one] | 0.001 to 1
33 | CCC(C)(C)C(=O)N1CCCC1C1CCCCC1 (stereo not drawn) [Compound 5, 1-(2-cyclohexylpyrrolidin-1-yl)-2,2-dimethylbutan-1-one] | 0.001 to 1
34 | CCC(C)(C)C(=O)N1CC[C@H]1c1ccccc1 [Compound 3, (S)-2,2-dimethyl-1-(2-phenylazetidin-1-yl)butan-1-one] | 0.001 to 1
35 | CC(C)(C)C(=O)N1CCCC1c1ccccc1 (stereo not drawn) [Compound S11, 2,2-dimethyl-1-(2-phenylpyrrolidin-1-yl)propan-1-one] | 0.001 to 1
36 | CCC(C)(C)C(=O)N1N=CCC1c1ccccc1 (stereo not drawn) [Compound 20, 2,2-dimethyl-1-(5-phenyl-4,5-dihydro-1H-pyrazol-1-yl)butan-1-one] | 0.001 to 1
37 | CC(F)(F)C(C)(C)C(=O)N1CC[C@H]1c1ccccc1 [Compound S9] | 0.001 to 1
38 | CC(F)(F)C(C)(C)C(=O)N1CCCC1c1ccccc1 (stereo not drawn) [Compound S10, 3,3-difluoro-2,2-dimethyl-1-(2-phenylpyrrolidin-1-yl) butan-1-one] | 0.001 to 1
39 | CCC(C)(C)C(=O)N1CCCC1c1cccc(F)c1 (stereo not drawn) [Compound 9, 1-(2-(3-fluorophenyl)pyrrolidin-1-yl)-2,2-dimethylbutan-1-one] | 0.001 to 1
40 | CCC(C)(C)C(=O)N1C(=O)C(F)(F)C1c1ccccc1 (stereo not drawn) [Compound 32, 1-(2,2-dimethylbutanoyl)-3,3-difluoro-4-phenylazetidin-2-one] | 0.001 to 1
41 | C#Cc1cccc(C2CC(=O)N2C(=O)C(C)(C)CC)c1 (stereo not drawn) [Compound 27, 1-(2,2-dimethylbutanoyl)-4-(3-ethynylphenyl)azetidin-2-one] | 0.001 to 1
42 | C#CC(C)(C)C(=O)N1CC[C@H]1c1ccccc1 [Compound 46, (S)-2,2-dimethyl-1-(2-phenylazetidin-1-yl)but-3-yn-1-one] | 0.001 to 1
43 | CCC(C)(C)C(=O)N1CCCC1c1ccccc1 (stereo not drawn) [Compound 4, 2,2-dimethyl-1-(2-phenylpyrrolidin-1-yl)butan-1-one] | 0.001 to 1

same assay, conditions: inhibition of necrosis, ATP levels, range given in uM, read-out: EC50 (necrosis activity)

Row | SMILES | EC50 [µM]
44 | CCC(C)(C)C(=O)N1CCC=C[C@H]1C1CCCCC1 [Compound 53] | 1 to 1000
45 | C=CC(C)(C)C(=O)N1CC=C[C@H]1c1ccccc1 [Compound 73] | 1 to 1000
46 | CCC(C)(C)C(=O)N1C=CC=CC1c1ccccc1 (stereo not drawn) [Compound 55] | 1 to 1000
47 | CCC(C)(C)S(=O)(=O)N1CC[C@H]1c1ccccc1 [Compound 70] | 1 to 1000
48 | C=CC(C)(C)C(=O)N1CCCC1c1ccccc1 (stereo not drawn) [Compound 69] | 1 to 1000
49 | C=CC(C)(C)C(=O)N1C=CC=C[C@H]1C1CCCCC1 [Compound 57] | 1 to 1000
50 | C=CC(C)(C)C(=O)N1CCC1c1ncc(C)s1 (stereo not drawn) [Compound 66] | 1 to 1000
51 | CCC(C)(C)C(=O)N1CCC=C[C@H]1c1ccccc1 [Compound 74] | 1 to 1000
52 | C=CC(C)(C)C(=O)N1CCC1c1ccc(C)s1 (stereo not drawn) [Compound 63] | 1 to 1000
53 | CCC(C)(C)C(=O)N1CCC1c1cccs1 (stereo not drawn) [Compound 59] | 1 to 1000
54 | C=CC(C)(C)C(=O)N1CC[C@H]1c1ccccc1 [Compound 68] | 1 to 1000
55 | CCC(C)(C)C(=O)N1CCC1c1ccc(C)s1 (stereo not drawn) [Compound 60] | 1 to 1000
56 | C=CC(C)(C)C(=O)N1CCC=C[C@H]1c1ccccc1 [Compound 75] | 1 to 1000
57 | C=CC(C)(C)C(=O)N1CCC1c1cccs1 (stereo not drawn) [Compound 62] | 1 to 1000
58 | CCC(C)(C)C(=O)N1CCC1c1ccccc1F (stereo not drawn) [Compound 67] | 1 to 1000
59 | CCC(C)(C)C(=O)N1CCC1c1ccco1 (stereo not drawn) [Compound 61] | 1 to 1000
60 | C=CC(C)(C)C(=O)N1OCCC1c1ccccc1 (stereo not drawn) [Compound 77] | 1 to 1000

From patent US10092529B2, “Necrosis inhibitors” (National Institute of Biological Sciences, Beijing, priority 2014, dated 2018)
